Laboratory results as given in patent US20260062422A1 (Halda Therapeutics OpCo, Inc., priority 2022, published 2026).

Legend:
[1] = system: T-Rex 293 cell line SC3 cells lacking increased expression of androgen receptor protein; experiment: Cellular growth inhibition, T-Rex 293 SC3 cells without doxycycline, CellTiter-Glo; format: cell-based; settings: T-Rex 293 SC3 cells not exposed to doxycycline, CellTiter-Glo 2.0
Summary of the method: (§1)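 Doxycycline-inducible androgen receptor T-Rex 293 clone SC3, seeded at 2500/well in phenol red-free DMEM with 10% charcoal-dextran FBS, without doxycycline or with 10 ng/mL to induce receptor. Compound added after 24 h (0.5% DMSO), 72 h at 37 °C; CellTiter-Glo 2.0 luminescence, GI50 by four-parameter fit.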

[2] = system: T-Rex 293 cell line SC3 cells having increased expression of androgen receptor protein due to exposure to doxycycline; experiment: Cellular growth inhibition, T-Rex 293 SC3 cells with doxycycline (androgen receptor induced), CellTiter-Glo; format: cell-based; settings: T-Rex 293 SC3 cells with 10 ng/mL doxycycline (increased androgen receptor expression)
Summary of the method: as §1

[3] = system: T47D cells; experiment: Cellular growth inhibition assay for T47D cells, CellTiter-Glo; format: cell-based, human; settings: 72 hours treatment, CellTiter-Glo 2.0 cell viability
Summary of the method: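 Growth inhibition as GI50, fitted with four parameters to CellTiter-Glo luminescence after 72 h of compound exposure (0.5% DMSO). Cells were T47D, grown in insulin-supplemented (0.2 units/mL) DMEM with 10% FBS and treated one day post-seeding.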

`Cc1sc2c(c1C)C(c1ccc(Cl)cc1)=N[C@@H](CC(=O)NCCOCCOCCOCCOCCN(C)c1ncc(C(=O)N[C@H]3C(C)(C)[C@H](Oc4ccc(C#N)c(Cl)c4)C3(C)C)cn1)c1nnc(C)n1-2` [Compound I-3, N-((1r,3r)-3-(3-chloro-4-cyanophenoxy)-2,2,4,4-tetramethylcyclobutyl)-2-((1-((S)-4-(4-chlorophenyl)-2,3,9-trimethyl-6H-thieno[3,2-f][1,2,4]triazolo[4,3-a][1,4]diazepin-6-yl)-2-oxo-6,9,12,15-tetraoxa-3-azaheptadecan-17-yl)(methyl)amino)pyrimidine-5-carboxamide] gave a GI50 ([1]; 72 h) of over 3000 nM and a GI50 ([2]; 72 h) of under 500 nM.

With `Cc1sc2c(c1C)C(c1ccc(Cl)cc1)=N[C@@H](CC(=O)NCCOCCOCCOCCOCCOCCOCCN(C)c1ncc(C(=O)N[C@H]3C(C)(C)[C@H](Oc4ccc(C#N)c(Cl)c4)C3(C)C)cn1)c1nnc(C)n1-2` [Compound I-4] the GI50 ([1]; 72 h) was over 3000 nM and the GI50 ([2]; 72 h) was under 500 nM.

With `Cc1sc2c(c1C)C(c1ccc(Cl)cc1)=N[C@@H](CC(=O)NCCCN1CCN(CCCN(C)c3ncc(C(=O)N[C@H]4C(C)(C)[C@H](Oc5ccc(C#N)c(Cl)c5)C4(C)C)cn3)CC1)c1nnc(C)n1-2` [Compound I-5, N-((1r,3r)-3-(3-chloro-4-cyanophenoxy)-2,2,4,4-tetramethylcyclobutyl)-2-((3-(4-(3-(2-((S)-4-(4-chlorophenyl)-2,3,9-trimethyl-6H-thieno[3,2-f][1,2,4]triazolo[4,3-a][1,4]diazepin-6-yl)acetamido)propyl)piperazin-1-yl)propyl)(methyl)amino)pyrimidine-5-carboxamide] the GI50 ([1]; 72 h) was over 3000 nM and the GI50 ([2]; 72 h) was under 500 nM.

Compound `Cc1sc2c(c1C)C(c1ccc(Cl)cc1)=N[C@@H](CC(=O)NCCOC1CCN(c3ncc(C(=O)N[C@H]4C(C)(C)[C@H](Oc5ccc(C#N)c(Cl)c5)C4(C)C)cn3)CC1)c1nnc(C)n1-2` [Compound I-6] has a GI50 ([1]; 72 h) of 500 to 1500 nM and a GI50 ([2]; 72 h) of under 500 nM.

For `Cc1sc2c(c1C)C(c1ccc(Cl)cc1)=N[C@H](CC(=O)NCCOCCOCCOCCOCCOCCOCCOC1CCN(c3ncc(C(=O)N[C@H]4C(C)(C)[C@H](Oc5ccc(C#N)c(Cl)c5)C4(C)C)cn3)CC1)c1nnc(C)n1-2` [Compound I-9], the GI50 ([1]; 72 h) was 1500 to 3000 nM and the GI50 ([2]; 72 h) was under 500 nM.

In the case of `Cc1sc2c(c1C)C(c1ccc(Cl)cc1)=N[C@@H](CC(=O)NCCCN1CCN(CCCOC3CCN(c4ncc(C(=O)N[C@H]5C(C)(C)[C@H](Oc6ccc(C#N)c(Cl)c6)C5(C)C)cn4)CC3)CC1)c1nnc(C)n1-2` [Compound I-10], the GI50 ([1]; 72 h) is reported as 1500 to 3000 nM and the GI50 ([2]; 72 h) is reported as under 500 nM.

Compound `Cc1sc2c(c1C)C(c1ccc(Cl)cc1)=N[C@@H](CC(=O)NCCOCCOCCOCCOC1CCN(c3ncc(C(=O)N[C@H]4C(C)(C)[C@H](Oc5ccc(C#N)c(Cl)c5)C4(C)C)cn3)CC1)c1nnc(C)n1-2` [Compound I-11] has a GI50 ([1]; 72 h) of 1500 to 3000 nM and a GI50 ([2]; 72 h) of under 500 nM.

`Cc1sc2c(c1C)C(c1ccc(Cl)cc1)=N[C@H](CC(=O)NCCOCCOCCOCCOC1CCN(c3ncc(C(=O)N[C@H]4C(C)(C)[C@H](Oc5ccc(C#N)c(Cl)c5)C4(C)C)cn3)CC1)c1nnc(C)n1-2` [Compound I-13] gave a GI50 ([1]; 72 h) of over 3000 nM and a GI50 ([2]; 72 h) of over 3000 nM.

Work on `Cc1sc2c(c1C)C(c1ccc(Cl)cc1)=N[C@@H](CC(=O)NCCOCCOCCOCC1CCN(c3ncc(C(=O)N[C@H]4C(C)(C)[C@H](Oc5ccc(C#N)c(Cl)c5)C4(C)C)cn3)CC1)c1nnc(C)n1-2` [Compound I-17] yielded a GI50 ([1]; 72 h) of 500 to 1500 nM and a GI50 ([2]; 72 h) of under 500 nM.

`Cc1sc2c(c1C)C(c1ccc(Cl)cc1)=N[C@@H](CC(=O)NCCOCCOCCOCC1CN(c3ncc(C(=O)N[C@H]4C(C)(C)[C@H](Oc5ccc(C#N)c(Cl)c5)C4(C)C)cn3)C1)c1nnc(C)n1-2` [Compound I-18] showed a GI50 ([1]; 72 h) of 1500 to 3000 nM and a GI50 ([2]; 72 h) of 500 to 1500 nM.

In the case of `Cc1sc2c(c1C)C(c1ccc(Cl)cc1)=N[C@H](CC(=O)NCCOCCOCCOCCOCCN(C)c1ncc(C(=O)N[C@H]3C(C)(C)[C@H](Oc4ccc(C#N)c(Cl)c4)C3(C)C)cn1)c1nnc(C)n1-2` [Compound I-19], the GI50 ([1]; 72 h) is reported as over 3000 nM and the GI50 ([2]; 72 h) is reported as over 3000 nM.

Work on `Cc1sc2c(c1C)C(c1ccc(Cl)cc1)=N[C@@H](CC(=O)NCCCCCOC1CCN(c3ncc(C(=O)N[C@H]4C(C)(C)[C@H](Oc5ccc(C#N)c(Cl)c5)C4(C)C)cn3)CC1)c1nnc(C)n1-2` [Compound I-22, N-((1r,3r)-3-(3-chloro-4-cyanophenoxy)-2,2,4,4-tetramethylcyclobutyl)-2-(4-((5-(2-((S)-4-(4-chlorophenyl)-2,3,9-trimethyl-6H-thieno[3,2-A][1,2,4]triazolo[4,3-a][1,4]diazepin-6-yl)acetamido)pentyl)oxy)piperidin-1-yl)pyrimidine-5-carboxamide] yielded a GI50 ([1]; 72 hours) of over 3000 nM and a GI50 ([2]; 72 hours) of under 500 nM.

`Cc1sc2c(c1C)C(c1ccc(Cl)cc1)=N[C@@H](CC(=O)NCCCCCCCOC1CCN(c3ncc(C(=O)N[C@H]4C(C)(C)[C@H](Oc5ccc(C#N)c(Cl)c5)C4(C)C)cn3)CC1)c1nnc(C)n1-2` [Compound I-24] was tested, and the GI50 ([1]; 72 h) was over 3000 nM and the GI50 ([2]; 72 h) was under 500 nM.

`Cc1sc2c(c1C)C(c1ccc(Cl)cc1)=N[C@@H](CC(=O)NCCCCOCCOC1CCN(c3ncc(C(=O)N[C@H]4C(C)(C)[C@H](Oc5ccc(C#N)c(Cl)c5)C4(C)C)cn3)CC1)c1nnc(C)n1-2` [Compound I-28] was tested, and the GI50 ([1]; 72 h) was 500 to 1500 nM and the GI50 ([2]; 72 h) was under 500 nM.

`Cc1sc2c(c1C)C(c1ccc(OCCOCCOC3CCN(c4ncc(C(=O)N[C@H]5C(C)(C)[C@H](Oc6ccc(C#N)c(Cl)c6)C5(C)C)cn4)CC3)cc1)=N[C@@H](CC(=O)O)c1nnc(C)n1-2` [Compound I-39] was tested, and the GI50 ([1]; 72 h) was over 3000 nM and the GI50 ([2]; 72 h) was 500 to 1500 nM.

For `Cc1sc2c(c1C)C(c1ccc(OCCOCCOCCOC3CCN(c4ncc(C(=O)N[C@H]5C(C)(C)[C@H](Oc6ccc(C#N)c(Cl)c6)C5(C)C)cn4)CC3)cc1)=N[C@@H](CC(=O)O)c1nnc(C)n1-2` [Compound I-40], the GI50 ([1]; 72 h) was over 3000 nM and the GI50 ([2]; 72 h) was over 3000 nM.

Compound `Cc1sc2c(c1C)C(c1cccc(OCCOCCOC3CCN(c4ncc(C(=O)N[C@H]5C(C)(C)[C@H](Oc6ccc(C#N)c(Cl)c6)C5(C)C)cn4)CC3)c1)=N[C@@H](CC(=O)O)c1nnc(C)n1-2` [Compound I-42] has a GI50 ([1]; 72 h) of over 3000 nM and a GI50 ([2]; 72 h) of 500 to 1500 nM.

`Cc1sc2c(c1C)C(c1cccc(OCCOCCOCCOC3CCN(c4ncc(C(=O)N[C@H]5C(C)(C)[C@H](Oc6ccc(C#N)c(Cl)c6)C5(C)C)cn4)CC3)c1)=N[C@@H](CC(=O)O)c1nnc(C)n1-2` [Compound I-43] showed a GI50 ([1]; 72 h) of over 3000 nM and a GI50 ([2]; 72 h) of over 3000 nM.

`CCNC(=O)C[C@@H]1N=C(c2ccc(OCCOCCOCCOC3CCN(c4ncc(C(=O)N[C@H]5C(C)(C)[C@H](Oc6ccc(C#N)c(Cl)c6)C5(C)C)cn4)CC3)cc2)c2c(sc(C)c2C)-n2c(C)nnc21` [Compound I-45, N-((1r,3r)-3-(3-chloro-4-cyanophenoxy)-2,2,4,4-tetramethylcyclobutyl)-2-(4-(2-(2-(2-(4-((S)-6-(2-(ethylamino)-2-oxoethyl)-2,3,9-trimethyl-6H-thieno[3,2-f][1,2,4]triazolo[4,3-a][1,4]diazepin-4-yl)phenoxy)ethoxy)ethoxy)ethoxy)piperidin-1-yl)pyrimidine-5-carboxamide] showed a GI50 ([1]; 72 h) of 500 to 1500 nM and a GI50 ([2]; 72 h) of under 500 nM.

Compound `Cc1sc2c(c1C)C(c1ccc(CC3CC4(CCN(c5ncc(C(=O)N[C@H]6C(C)(C)[C@H](Oc7ccc(C#N)c(Cl)c7)C6(C)C)cn5)CC4)C3)cc1)=N[C@@H](C)c1nnc(C)n1-2` [Compound I-303] has a GI50 [3] of under 500 nM.
